Converted amounts (≈) assume the structure as drawn. Blank lines part the entries; values can stand above or below the compound they belong to.
Key:
[1] = test system: Bacillus mycoides; experiment: Antibacterial activity against Bacillus mycoides FSB 1 after 18 to 24 hrs by microdilution method; format: functional
[2] = test system: Bacillus subtilis; experiment: Antibacterial activity against Bacillus subtilis FSB 2 after 18 to 24 hrs by microdilution method; format: functional
[3] = test system: Micrococcus luteus; experiment: Antibacterial activity against Micrococcus lysodeikticus ATCC 4698 after 18 to 24 hrs by microdilution method; format: functional
[4] = test system: Staphylococcus aureus; experiment: Antibacterial activity against Staphylococcus aureus ATCC 25923 after 18 to 24 hrs by microdilution method; format: functional
[5] = test system: Staphylococcus aureus; experiment: Antibacterial activity against Staphylococcus aureus FSB 30 after 18 to 24 hrs by microdilution method; format: functional
[6] = test system: Azotobacter chroococcum; experiment: Antibacterial activity against Azotobacter chroococcum FSB 14 after 18 to 24 hrs by microdilution method; format: functional
[7] = test system: Enterobacter cloacae; experiment: Antibacterial activity against Enterobacter cloacae FSB 22 after 18 to 24 hrs by microdilution method; format: functional
[8] = test system: Pectobacterium carotovorum; experiment: Antibacterial activity against Erwinia carotovora FSB 31 after 18 to 24 hrs by microdilution method; format: functional
[9] = test system: Escherichia coli; experiment: Antibacterial activity against Escherichia coli ATCC 25922 after 18 to 24 hrs by microdilution method; format: functional
[10] = test system: Klebsiella pneumoniae; experiment: Antibacterial activity against Klebsiella pneumoniae FSB 26 after 18 to 24 hrs by microdilution method; format: functional
[11] = test system: Pseudomonas fluorescens; experiment: Antibacterial activity against Pseudomonas fluorescens FSB 28 after 18 to 24 hrs by microdilution method; format: functional
[12] = test system: Pseudomonas syringae; experiment: Antibacterial activity against Pseudomonas glycinea FSB 40 after 18 to 24 hrs by microdilution method; format: functional, Pseudomonas savastanoi pv. glycinea
[13] = test system: Pseudomonas savastanoi pv. phaseolicola; experiment: Antibacterial activity against Pseudomonas phaseolicola FSB 29 after 18 to 24 hrs by microdilution method; format: functional
[14] = Antioxidant activity assessed as DPPH free radical scavenging activity after 30 to 60 mins by UV-vis spectrophotometric analysis; format: functional
[15] = Antioxidant activity assessed as DPPH free radical scavenging activity; format: functional
[16] = test system: Staphylococcus aureus; experiment: Antibacterial activity against Staphylococcus aureus by turbidity assay; format: functional
[17] = test system: Bacillus cereus; experiment: Antibacterial activity against Bacillus cereus by turbidity assay; format: functional
[18] = test system: Escherichia coli; experiment: Antibacterial activity against Escherichia coli by turbidity assay; format: functional
[19] = test system: Proteus vulgaris; experiment: Antibacterial activity against Proteus vulgaris by turbidity assay; format: functional
[20] = Antioxidant activity assessed as DPPH free radical scavenging activity incubated for 30 mins in dark condition; format: functional
[21] = test system: Staphylococcus aureus; experiment: Antibacterial activity against methicillin-resistant Staphylococcus aureus after 24 hrs by microbroth dilution method; format: functional
[22] = test system: Escherichia coli; experiment: Antibacterial activity against Escherichia coli after 16 hrs by broth microdilution method; format: functional
[23] = test system: Staphylococcus aureus; experiment: Antibacterial activity against Staphylococcus aureus after 16 hrs by broth microdilution method; format: functional
[24] = test system: Escherichia coli; experiment: Antibacterial activity against Escherichia coli after 18 hrs by CLSI broth microdilution method; format: functional
[25] = test system: Staphylococcus aureus; experiment: Antibacterial activity against Staphylococcus aureus after 18 hrs by CLSI broth microdilution method; format: functional
[26] = Antioxidant activity assessed as DPPH free radical scavenging activity incubated for 30 min by UV-vis spectrophotometric analysis; format: functional
[27] = test system: Escherichia coli; experiment: Antibacterial activity against Escherichia coli KCTC 1924 after 20 to 36 hrs by disc diffusion method; format: functional
[28] = test system: Staphylococcus aureus; experiment: Antibacterial activity against Staphylococcus aureus KCTC 1916 after 20 to 36 hrs by disc diffusion method; format: functional
[29] = test system: Staphylococcus aureus; experiment: Antibacterial activity against methicillin-resistant Staphylococcus aureus; format: functional
[30] = test system: Staphylococcus aureus; experiment: Antibacterial activity against Staphylococcus aureus ATCC 6538 by agar diffusion method; format: functional
[31] = test system: Escherichia coli; experiment: Antibacterial activity against Escherichia coli ATCC 10536 by agar diffusion method; format: functional
[32] = Antioxidant activity assessed as BTH equivalent of DPPH-induced radical scavenging activity; format: functional
[33] = test system: Staphylococcus aureus; experiment: Bactericidal activity against Staphylococcus aureus ATCC 29213 incubated for 24 hrs by serial dilution method; format: functional
[34] = test system: Staphylococcus aureus; experiment: Antibacterial activity against Staphylococcus aureus ATCC 29213 assessed as inhibition of bacterial growth at 25 g/L incubated for 24 hrs by serial dilution method relative to cntrol; format: functional; conditions: ATCC 29213, 24 h, read-out: GI

MIC [1]: 3.9 to 31.2 µg/mL (≈ 12 to 95.6 µM)
MIC [2]: 3.9 to 31.2 µg/mL (≈ 12 to 95.6 µM)
MIC [3]: 3.9 to 31.2 µg/mL (≈ 12 to 95.6 µM)
MIC [4]: 3.9 to 31.2 µg/mL (≈ 12 to 95.6 µM)
MIC [5]: 3.9 to 31.2 µg/mL (≈ 12 to 95.6 µM)
MIC [6]: 3.9 to 31.2 µg/mL (≈ 12 to 95.6 µM)
MIC [7]: 3.9 to 31.2 µg/mL (≈ 12 to 95.6 µM)
MIC [8]: 3.9 to 31.2 µg/mL (≈ 12 to 95.6 µM)
MIC [9]: 3.9 to 31.2 µg/mL (≈ 12 to 95.6 µM)
MIC [10]: 3.9 to 31.2 µg/mL (≈ 12 to 95.6 µM)
MIC [11]: 3.9 to 31.2 µg/mL (≈ 12 to 95.6 µM)
MIC [12]: 3.9 to 31.2 µg/mL (≈ 12 to 95.6 µM)
MIC [13]: 3.9 to 31.2 µg/mL (≈ 12 to 95.6 µM)
IC50 [14]: 26 µM
SMILES: CC(Nc1ccc([N+](=O)[O-])cc1)c1c(O)c2ccccc2oc1=O (stereo not drawn)

IC50 [15]: 28 µg/mL (≈ 37.2 µM)
MIC [16]: 7.81 to 31.2 µg/mL (≈ 10.4 to 41.5 µM)
MIC [17]: 7.81 to 31.2 µg/mL (≈ 10.4 to 41.5 µM)
MIC [18]: 7.81 to 31.2 µg/mL (≈ 10.4 to 41.5 µM)
MIC [19]: 7.81 to 31.2 µg/mL (≈ 10.4 to 41.5 µM)
SMILES: COc1c2cc(C)cc1n1cc(ccc3cn(c4cc(C)cc(c4OC)n4cc(ccc5cn2c2ccccc52)c2ccccc24)c2ccccc32)c2ccccc21

IC50 [20]: 59.07 µg/mL (≈ 142 µM)
SMILES: Cc1c(-c2cc(-c3ccc(F)cc3)nc(N)n2)nnn1-c1ccc(Cl)c(Cl)c1

SMILES: COc1cc(/C=C/c2cc(/C=C/c3ccc(OCC(=O)N[C@H](C)c4ccccc4)c(OC)c3)[nH]n2)ccc1OCC(=O)N[C@H](C)c1ccccc1
MIC [21]: 10 to 20 µg/mL (≈ 14.6 to 29.1 µM)

SMILES: C=CCc1ccc(O)c(OC)c1 [EUGENOL]
MIC [22]: 2.5 µg/mL (≈ 15.2 µM)
MIC [23]: 2.5 µg/mL (≈ 15.2 µM)

MIC [24]: 0.6 to 19 µg/mL
MIC [25]: 0.6 µg/mL
SMILES: Cc1c(O)cc(CCCCCCCCCC[P+](c2ccccc2)(c2ccccc2)c2ccccc2)c(O)c1C

MIC [22]: 2.5 µg/mL (≈ 16.6 µM)
MIC [23]: 1.25 µg/mL (≈ 8.32 µM)
SMILES: Cc1ccc(C(C)C)cc1O [CARVACROL]

EC50 [26]: 3 µg/mL (≈ 10.8 µM)
MIC [27]: 8.71 µg/mL (≈ 31.4 µM)
MIC [28]: 7.32 µg/mL (≈ 26.4 µM)
SMILES: Oc1ccc2ccccc2c1-c1c[nH]c2ccc(F)cc12

SMILES: COc1cc(/C=C/C(=O)CC(=O)/C=C/c2ccc(O)c(OC)c2)ccc1O [CURCUMIN]
IC50 [15]: 28 µg/mL (≈ 76 µM)
MIC [29]: 125 to 250 µg/mL (≈ 339 to 679 µM)

SMILES: COc1cc(/C=C/c2cc(/C=C/c3ccc(OCC(=O)Nc4ccccc4C)c(OC)c3)[nH]n2)ccc1OCC(=O)Nc1ccccc1C
MIC [21]: 10 to 20 µg/mL (≈ 15.2 to 30.4 µM)

SMILES: COc1cc(/C=C/c2cc(/C=C/c3ccc(OCC(=O)Nc4ccccc4)c(OC)c3)[nH]n2)ccc1OCC(=O)Nc1ccccc1
MIC [21]: 10 to 20 µg/mL (≈ 15.9 to 31.7 µM)

SMILES: COc1cc(/C=C/c2cc(/C=C/c3ccc(OCC(=O)NCc4ccccc4)c(OC)c3)[nH]n2)ccc1OCC(=O)NCc1ccccc1
MIC [21]: 10 to 20 µg/mL (≈ 15.2 to 30.4 µM)

SMILES: COc1cc(/C=C/c2cc(/C=C/c3ccc(OCC(=O)Nc4cc(Cl)cc(Cl)c4)c(OC)c3)[nH]n2)ccc1OCC(=O)Nc1cc(Cl)cc(Cl)c1
MIC [21]: 10 to 20 µg/mL (≈ 13 to 26 µM)

SMILES: COc1cc(/C=C/c2cc(/C=C/c3ccc(OCC(=O)N[C@@H](C)c4ccccc4)c(OC)c3)[nH]n2)ccc1OCC(=O)N[C@@H](C)c1ccccc1
MIC [21]: 10 to 20 µg/mL (≈ 14.6 to 29.1 µM)

MIC [30]: 100 µg/mL (≈ 365 µM)
MIC [31]: 250 µg/mL (≈ 912 µM)
SMILES: O=C(CCc1ccc(O)cc1)c1c(O)cc(O)cc1O [PHLORETIN]
Activity [32]: 1.27 mg.equiv

SMILES: COc1cc(N)ccc1O
MBC99 [33]: 10 mM (≈ 1390 µg/mL)
inhibition of growth at 25000 µg/mL [34]: 93%

SMILES: COc1ccccc1NC(=O)COc1ccc(/C=C/c2cc(/C=C/c3ccc(OCC(=O)Nc4ccccc4OC)c(OC)c3)[nH]n2)cc1OC
MIC [21]: 10 to 20 µg/mL (≈ 14.5 to 29 µM)
